Results on 9 compounds are retold here after patent US20140357655A1, “SPIROINDOLINE DERIVATIVES AS GONADOTROPIN- RELEASING HORMONE RECEPTOR ANTAGONISTS” (Bayer Intellectual Property GmbH, priority 2012, published 2014).

For this assay, the target named is T1, human GnRH receptor (Homo sapiens, UniProt P30968).
T1 sequence (P30968 1-328): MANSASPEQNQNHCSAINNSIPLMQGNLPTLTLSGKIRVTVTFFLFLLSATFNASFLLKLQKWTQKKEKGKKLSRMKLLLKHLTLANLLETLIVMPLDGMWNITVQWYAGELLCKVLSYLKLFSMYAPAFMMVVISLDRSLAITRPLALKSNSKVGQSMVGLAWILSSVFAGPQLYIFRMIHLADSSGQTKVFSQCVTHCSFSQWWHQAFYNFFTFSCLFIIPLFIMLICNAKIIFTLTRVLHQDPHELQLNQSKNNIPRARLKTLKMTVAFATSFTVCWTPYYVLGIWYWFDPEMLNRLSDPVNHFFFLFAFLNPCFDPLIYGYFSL
In words: IP-One HTRF assay with buserelin (at EC80) stimulation. The settings on record: CHO cells stably expressing human GnRH receptor, read-out: Potency in IP-One HTRF assay, given as IC50. Format: cell-based. In outline:
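CHO cells stably expressing human GnRH receptor, preincubated 1 h at 37° C with IP1-d2, were exposed to compound and buserelin at EC80 for 1 h at 37° C. After lysis with Tb-anti-IP1 antibody (1 h, 22° C), 665/620 nm HTRF ratio read; 10 concentrations, 20 μM–1 nM, duplicates, 4-parameter IC50.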
Background: Time-resolved FRET reads energy transfer from a long-lived donor to a nearby acceptor.

Turning to `NC(=O)c1cccc(NC(=O)c2ccc3c(c2)C2(CCS(=O)(=O)CC2)C(C2CC2)N3S(=O)(=O)c2ccc(F)cc2)c1` (single isomer, unassigned) [Example 51.2, N-(3-carbamoylphenyl)-2-cyclopropyl-1-[(4-fluorophenyl)sulfonyl]-1,2,2′,3′,5′,6′-hexahydrospiro[indole-3,4′-thiopyran]-5-carboxamide 1′,1′-dioxide], the IC50 turned out to be 1180 nM.
As for `COC(=O)c1cccc(S(=O)(=O)N2c3ccc(C(=O)NCc4ccccc4Cl)cc3C3(CCS(=O)(=O)CC3)C2C2CC2)c1` (single isomer, unassigned) [Example 60.1, methyl 3-({5-[(2-chlorobenzyl)carbamoyl]-2-cyclopropyl-1′,1′-dioxido-2′,3′,5′,6′-tetrahydrospiro[indole-3,4′-thiopyran]-1(2H)-yl}sulfonyl)benzoate], the figure is 55 nM.
For the compound `COC(=O)c1cccc(S(=O)(=O)N2c3ccc(C(=O)NCc4ccccc4Cl)cc3C3(CCS(=O)(=O)CC3)C2C2CC2)c1` (single isomer, unassigned) [Example 60.2, methyl 3-({5-[(2-chlorobenzyl)carbamoyl]-2-cyclopropyl-1′,1′-dioxido-2′,3′,5′,6′-tetrahydrospiro[indole-3,4′-thiopyran]-1(2H)-yl}sulfonyl)benzoate], the 50% inhibitory concentration (IC50) is 1140 nM.
The result for `O=C(O)c1cccc(S(=O)(=O)N2c3ccc(C(=O)NCc4ccccc4Cl)cc3C3(CCS(=O)(=O)CC3)C2C2CC2)c1` (single isomer, unassigned) [Example 61.1, 3-({5-[(2-chlorobenzyl)carbamoyl]-2-cyclopropyl-1′,1′-dioxido-2′,3′,5′,6′-tetrahydrospiro[indole-3,4′-thiopyran]-1(2H)-yl}sulfonyl)benzoic acid] reads 84 nM; that for `O=C(O)c1cccc(S(=O)(=O)N2c3ccc(C(=O)NCc4ccccc4Cl)cc3C3(CCS(=O)(=O)CC3)C2C2CC2)c1` (single isomer, unassigned) [Example 61.2, 3-({5-[(2-chlorobenzyl)carbamoyl]-2-cyclopropyl-1′,1′-dioxido-2′,3′,5′,6′-tetrahydrospiro[indole-3,4′-thiopyran]-1(2H)-yl}sulfonyl)benzoic acid], 2010 nM.
For the compound `COc1cccc(S(=O)(=O)N2c3ccc(C(=O)Nc4cccc(S(=O)(=O)N=C(N(C)C)N(C)C)c4)cc3C3(CCS(=O)(=O)CC3)C2C2CC2)c1` (single isomer, unassigned) [Example 62.1, N-(3-{[bis(dimethylamino)methylidene]sulfamoyl}phenyl)-2-cyclopropyl-1-[(3-methoxyphenyl)sulfonyl]-1,2,2′,3′,5′,6′-hexahydrospiro[indole-3,4′-thiopyran]-5-carboxamide 1′,1′-dioxide], the IC50 was 6430 nM.
Consider `COc1cccc(S(=O)(=O)N2c3ccc(C(=O)Nc4cccc(S(=O)(=O)N=C(N(C)C)N(C)C)c4)cc3C3(CCS(=O)(=O)CC3)C2C2CC2)c1` (single isomer, unassigned) [Example 62.2, N-(3-{[bis(dimethylamino)methylidene]sulfamoyl}phenyl)-2-cyclopropyl-1-[(3-methoxyphenyl)sulfonyl]-1,2,2′,3′,5′,6′-hexahydrospiro[indole-3,4′-thiopyran]-5-carboxamide 1′,1′-dioxide], for which the IC50 turned out to be 4.8 nM.
On to `O=C(Nc1ccon1)c1ccc2c(c1)C1(CCS(=O)(=O)CC1)C(C1CC1)N2S(=O)(=O)c1ccc(F)cc1` (single isomer, unassigned) [Example 63.1, 2-cyclopropyl-1-[(4-fluorophenyl)sulfonyl]-N-(1,2-oxazol-3-yl)-1,2,2′,3′,5′,6′-hexahydrospiro[indole-3,4′-thiopyran]-5-carboxamide 1′,1′-dioxide], for which the IC50 came out at 88 nM.
For the compound `O=C(Nc1ccon1)c1ccc2c(c1)C1(CCS(=O)(=O)CC1)C(C1CC1)N2S(=O)(=O)c1ccc(F)cc1` (single isomer, unassigned) [Example 63.2, 2-cyclopropyl-1-[(4-fluorophenyl)sulfonyl]-N-(1,2-oxazol-3-yl)-1,2,2′,3′,5′,6′-hexahydrospiro[indole-3,4′-thiopyran]-5-carboxamide 1′,1′-dioxide], the IC50 is 3430 nM.

In general, IC50 refers to the concentration at which inhibition is half-maximal.
